Measured values from publication PMC10895678 (Journal of Medicinal Chemistry, 2024).
≈ marks a conversion by molar mass, not a printed value. Where “and” joins values, the source holds several entries; their conditions need not be identical. Equal entries are not always repeated. Where two headings read alike, the source gives them in different places.

Assays:
BCG pTIC6-fbpB = type: cell-based, Mycobacterium bovis BCG
M. tuberculosis H37Rv [1] = assay: Mycobacterial time kill experiments (total viable counts); type: cell-based, Mycobacterium tuberculosis; settings: 96 μM, after 6 days of exposure
[2] = Mouse PK, multiple oral dosing of single compounds; type: in vivo, KM mice; settings: for half-life / AUC(0-inf) / Cmax / Tmax: 30 mg/kg
Description: Methods for combined single dosing (BGAz001–005) and dosing of single compounds multiple times (BGAz004 and BGAz005) are described in detail in the Supporting Information (PK Data).
Report on PK results of BGAz-004 by multiple oral dosing
7 Materials and instrument combined dosing
An MS2 Turnover type oscillator was purchased from IKA Work’s Guangzhou (China), and a 5415R ChromatographicanalyseswereconductedusinganAgilent1290InfinityIIhighperformanceliquidchromatography andAgilentTechnologies6470TripleQuadLC/MS.Propranolol(≥90%inpurity,internalstandard,IS)waspurchased fromtheSigmaChemicalCo.(China).Formicacid(HPLCgrade)andmethanol(HPLCgrade)werepurchasedfrom DIKMACo.(China).Allchemicalsandsolventswereanalyticalgrade.WaterwaspurifiedusingaMillipore(AK,USA) laboratoryultra-purewatersystem(0.2μmfilter).
KMmice,weighing25–35g(BeijingVitalRiverLaboratoryAnimalTechnologyCo.,Ltd.,China)wereutilisedforthe studies.The protocols were approved by the Animal Care and Use Committee, GIBH. Animals were maintained on standard animal chow and waterad libitum, in a climate-controlled room (23±1 °C 30–70% relative humidity, a minimumof tenexchangesof roomairperhouranda12hlight/darkcycle)foroneweekpriortoexperiments.
9 Pharmacokinetic studies
Compound BGAz-004 were dissolved in the solution containing DMSO (2%), ethanol (4%), Cremophor EL (4%) and ddH2O (90%).The mice were given solution with 30 mg/kg bygastric gavagefor 3 days.Whole blood samples (100μL)wereobtainedfromtheorbitalvenousplexusatthefollowingtimepointsafterthethirddaydosing:5,15,30 min and 1, 3, 5, 8, 24 hour. Whole blood samples were collected in heparinised tubes. The plasma fraction was immediately separated by centrifugation. The mice were humanely euthanasia by carbon dioxide 24 hours after […]
10 Plasma sample analysis
10.1 Standard curve sample preparation
ThecompoundsweredissolvedinDMSO(2mg/mL)anddilutedwithtoseriesconcentration(methanol:H 2O,1:1,10 μL) and blank plasma (50 μL) were added to 1.5 mL tubes and vortexed for 3 min, then acetonitrile-containing internalstandard(150μL)wasaddedandvortexedforafurther5min,andsubsequentlyspuninacentrifugeat13000 […]
10.2 Plasma and preparation
Plasmasampleswerepreparedusingaproteinprecipitationmethod.Solution(10μL,methanolH 2O,1:1)andplasma samples(50μL)wereaddedto1.5mLtubesandvortexfor3min,thenacetonitrile-containinginternalstandard(150 μL)wasaddedandvortexfor5min,andsubsequentlyspuninacentrifugeat13000× gfor40minat4°C.
Aftercentrifugation,supernatant(100μL)wastransferto96wellplatesandanalysedbyLC-MS/MSusinganAgilent 1290InfinityIIHPLCandanAgilentTechnologies6470TripleQuadLC/MS.
Report on PK results of BGAz-005 by multiple oral dosing
13 Materials and instrument combined dosing […]
fromtheSigmaChemicalCo.(China).Formicacid(HPLCgrade)andmethanol(HPLCgrade)werepurchased from […]
15 Pharmacokinetic studies
Compound BGAz-005 were dissolved in the solution containing DMSO (2%), ethanol (4%), Cremophor EL (4%) […]
16 Plasma sample analysis
16.1 Standard curve sample preparation
16.2 Plasma and preparation

M. bovis BCG [3] = type: cell-based, Mycobacterium bovis BCG
[4] = Mouse PPB, rapid equilibrium dialysis; type: in vitro ADME; settings: mouse plasma (100%), RED, 37 °C
Protocol: Compounds were solubilized (10 mM in DMSO), and rapid equilibrium dialysis (RED) was used to measure the percentage binding to mouse plasma protein of the BGAz compounds at a final concentration of 5 μM. The BGAz compound was incubated in 100% mouse plasma and dialyzed against buffer in a RED device for 4 h at 37 °C in a 5% CO2 incubator, with continuous shaking at 200 rpm. Samples were matrix-matched and analyzed by LC-MS/MS against a six-point standard curve prepared with 100% plasma. All experiments were performed in triplicate.

[5] = Kinetic solubility (turbidimetry); type: physicochemical; settings: PBS pH 7.4, 1% DMSO, 25 °C
M. tuberculosis H37Rv [6] = assay: MIC, resazurin microtiter assay (REMA), H37Rv; type: cell-based; settings: Mycobacterium tuberculosis, drug-sensitive reference strain, read-out: M. tb H37Rv MIC99
Protocol: The previously described resazurin microtiter assay (REMA) plate method was used.[73],[74] Compounds were two-fold serially diluted in CAMR Mycobacterium Medium MOD2 (CMM MOD2).[75] Individual wells, in a 96-well plate, were inoculated with 1 × 10^6 CFU mL^–1 bacilli and incubated for 7 days at 37 °C with agitation (200 rpm). Following this, resazurin solution was added to wells (0.02% (w/v) in PBS pH 7.4, supplemented with 5% Tween 80).[76] The 96-well plates were incubated at room temperature for 6 h. The OD570nm of each well was recorded using a Tecan Sunrise plate reader. The minimum inhibitory concentration (MIC99) was calculated using a modified Gompertz function.[77] The optical density measurements for each drug concentration were compared to vehicle control to determine the percentage reduction in bacterial optical density.

M. bovis BCG [7] = assay: microbe, parasite or virus in culture; type: cell-based, Mycobacterium bovis BCG; settings: for MIC99 / MIC50: Mycobacterium tuberculosis variant bovis BCG, BCG; for MIC50: read-out: MIC50 BCG; for increase in activity against M. bovis BCG compared to BGAz-001: fold, from MIC99
[8] = KM, mouse, plasma, multiple PO 30 mg/kg, times 3, mean of animals
[9] = multiple PO 30 mg/kg, times 3, mean of animals

In the case of `CNCC1CC(c2ccc(OC(F)(F)F)cc2)N1Cc1ccccc1OC(F)(F)F` (stereo not drawn) [BGAz-005], the BCG pTIC6-fbpB MIC (BCG pTIC6-fbpB) is reported as 50 µM, the “increase in MIC upon overexpression of FbpB” value (BCG pTIC6-fbpB) is reported as “two-fold increase” and the “reduction of total viable count” value (M. tuberculosis H37Rv [1]) is reported as 3.28 ± 1.00 log10 CFU mL^–1. For the same compound, the half-life ([2]; KM, mouse, plasma, oral, mice, read-out: blood plasma half-life) was over 72 h, the AUC(0-inf) ([2]; KM, mouse, plasma, po, multiple PO 30 mg/kg, times 3, mean of animals, read-out: AUC(0-∞)) was 82200 ng·h/mL and the Cmax ([2]; KM, mouse, plasma, po, multiple PO 30 mg/kg, times 3, mean of animals, read-out: Cmax) was 1710 ng/mL. For the same compound, the Tmax ([2]; KM, mouse, plasma, po, multiple PO 30 mg/kg, times 3, mean of animals, read-out: Tmax) was 0.875 h, the half-life ([2]; KM, mouse, plasma, po, multiple PO 30 mg/kg, times 3, mean of animals, read-out: t1/2z (converted)) was 80.4 h and the AUC(0-inf) ([2]; KM, mouse, plasma, po, multiple PO, times 3, 30 mg/kg, summary table, read-out: AUC(0-∞)) was 82200 ng·h/mL. The Cmax ([2]; KM, mouse, plasma, po, multiple PO, times 3, 30 mg/kg, summary table, read-out: Cmax) was 1710 ng/mL, the half-life ([2]; KM, mouse, plasma, po, multiple PO, times 3, 30 mg/kg, summary table, read-out: T1/2 (converted)) was 80.4 h and the Tmax ([2]; KM, mouse, plasma, po, multiple PO, times 3, 30 mg/kg, summary table, read-out: Tmax) was 0.875 h. For the same compound, the AUC(0-inf) ([2]; KM, mouse, plasma, po, multiple daily dosing 3 × 30 mg/kg PO, read-out: AUC0-inf) was 82200 ng·h/mL, the Cmax ([2]; KM, mouse, plasma, po, multiple daily dosing 3 × 30 mg/kg PO, read-out: Cmax (Mouse, P.O.)) was 1710 ng/mL and the half-life ([2]; KM, mouse, plasma, po, multiple daily dosing 3 × 30 mg/kg PO, read-out: T1/2 (Mouse, P.O.) (converted)) was 80.4 h. For the same compound, the Tmax ([2]; KM, mouse, plasma, po, multiple daily dosing 3 × 30 mg/kg PO, read-out: Tmax (Mouse, P.O.)) was 0.87 h, the concentration at 0.083 h ([2]; KM, mouse, plasma, multiple PO 30 mg/kg, times 3, 0.083 h) was 1.97 µM and 858 ng/mL and the concentration at 0.25 h ([2]; KM, mouse, plasma, multiple PO 30 mg/kg, times 3, 0.25 h) was 2.69 µM and 1170 ng/mL. The concentration at 0.5 h ([2]; KM, mouse, plasma, multiple PO 30 mg/kg, times 3, 0.5 h) was 3.53 µM and 1540 ng/mL, the concentration at 1 h ([2]; KM, mouse, plasma, multiple PO 30 mg/kg, times 3, 1 h) was 3.75 µM and 1630 ng/mL and the concentration at 3 h ([2]; KM, mouse, plasma, multiple PO 30 mg/kg, times 3, 3 h) was 1.96 µM and 855 ng/mL. For the same compound, the concentration at 5 h ([2]; KM, mouse, plasma, multiple PO 30 mg/kg, times 3, 5 h) was 714 ng/mL and 1.64 µM, the concentration at 8 h ([2]; KM, mouse, plasma, multiple PO 30 mg/kg, times 3, 8 h) was 608 ng/mL and 1.4 µM and the concentration at 24 h ([2]; KM, mouse, plasma, multiple PO 30 mg/kg, times 3, 24 h) was 570 ng/mL and 1.31 µM. The AUC [2, 8] was 16800 ng·h/mL, the AUC(0-t) [2, 8] was 16800 ng·h/mL and the CL/F ([2]; KM, mouse, plasma, multiple PO 30 mg/kg, times 3, mean of animals, read-out: CLz/F (converted)) was 13.1 mL/min/kg. The MRT last ([2]; KM, mouse, plasma, multiple PO 30 mg/kg, times 3, mean of animals, read-out: MRT(0-t)) was 10.3 h, the MRT inf ([2]; KM, mouse, plasma, multiple PO 30 mg/kg, times 3, mean of animals, read-out: MRT(0-∞)) was 116 h and the Vd/F ([2]; KM, mouse, plasma, multiple PO 30 mg/kg, times 3, mean of animals, read-out: Vz/F) was 34.4 L/kg. The k el ([2]; KM, mouse, plasma, multiple PO 30 mg/kg, times 3, mean of animals, read-out: λz (converted)) was 1.42e-05 s⁻¹, the “AUMC(0-t)” value [2, 9] was 172065.476 h*h*μg/L and the “AUMC(0-∞)” value [2, 9] was 21124940.36 h*h*μg/L. It also gave a C_last [2, 9] of 394.2 ng/mL, a Cav [2, 9] of 699.901 ng/mL and a DF [2, 9] of 2.398. The “R_AUC(t/∞)” value [2, 9] was 45.975%, the “VRT(0-t)” value [2, 9] was 76.208 h^2 and the “VRT(0-∞)” value [2, 9] was 32368.115 h^2. The “log2FoldChange, gene BCG_0001” value (M. bovis BCG [3]) was -0.2829, the “log2FoldChange, gene BCG_0002” value (M. bovis BCG [3]) was -0.6164 and the “log2FoldChange, gene BCG_0003” value (M. bovis BCG [3]) was -0.7815. The “log2FoldChange, gene BCG_0004” value (M. bovis BCG [3]) was -0.2846, the “log2FoldChange, gene BCG_0005” value (M. bovis BCG [3]) was 0.5809 and the induced genes (M. bovis BCG [3]; 8 h exposure, 1 × MIC) was 160. For the same compound, the repressed genes (M. bovis BCG [3]; 8 h exposure, 1 × MIC) was 126, the fraction unbound at 4 h, 5 μM [4] was under 0.01 and the solubility kinetic at 5 min [5] was 117 µM (≈ 50.8 µg/mL). It also gave an MIC99 (M. tuberculosis H37Rv [6]) of 7.2 µM (≈ 3.13 µg/mL), an MIC99 (M. bovis BCG [7]; read-out: BCG MIC99) of 21 µM (≈ 9.12 µg/mL) and an MIC50 (M. bovis BCG [7]) of 20 µM (≈ 8.69 µg/mL). For the same compound, the MIC99 (M. bovis BCG [7]; read-out: MIC99 BCG) was 21 µM (≈ 9.12 µg/mL) and the “increase in activity against M. bovis BCG compared to BGAz-001” value (M. bovis BCG [7]) was “approximately three-fold increase”.

With `FC(F)(F)Oc1ccc(C2CC(CN3CCCC3)N2Cc2ccccc2OC(F)(F)F)cc1` (stereo not drawn) [BGAz-002] the fraction unbound at 4 h, 5 μM [4] was under 0.01, the solubility kinetic at 5 min [5] was 57 µM (≈ 27 µg/mL) and the MIC99 (M. tuberculosis H37Rv [6]) was 6.2 µM (≈ 2.94 µg/mL). For the same compound, the MIC99 (M. bovis BCG [7]; read-out: BCG MIC99) was 15 µM (≈ 7.12 µg/mL), the MIC50 (M. bovis BCG [7]) was 14 µM (≈ 6.64 µg/mL) and the MIC99 (M. bovis BCG [7]; read-out: MIC99 BCG) was 15 µM (≈ 7.12 µg/mL). The “increase in activity against M. bovis BCG compared to BGAz-001” value (M. bovis BCG [7]) was “approximately three- to four-fold increase”.
